According to patent US20240100063A1, “COMBINATION THERAPY OF PD-1 AXIS BINDING ANTAGONISTS AND LRRK2 INHITIBORS” (Hoffmann-La Roche Inc., priority 2020, published 2024):
“Also recorded” adds a separate entry of the source.

Tests used:
[1] = tested on: MV3 cancer cells; experiment: killing assay: MV3 viability upon co-culture with MART-1 T cells primed by pre-treated human cord blood derived dendritic cells; format: cell-based; settings: 6 days killing assay, increasing concentration, human setting
Source text: (§1) A, E) Schematic representation of the killing assay experimental setup respectively in mouse and human setting. […] Data are normalized to DMSO treated dendritic cells co-cultured with CD8a T cells. F) Evaluation of MV3 cancer cells viability upon co-cultured with MART-1 T Cells primed by human cord blood derived dendritic cells pre-treated with the LRRK2 inhibitor LRRK2-IN-1. Data are normalized to MV3 cells co-cultured with T cells primed in the absence of MART1 peptide. All the experiments were performed in triplicates.
(§2) Subsequently, we investigate whether the pre-treatment of freshly isolated mouse splenic dendritic cells with increasing concentrations of the compounds can enhance the OT-1 CD8a T cells activation upon co-culture. […] Finally, as for the genetic validation in DC2.4, we challenge the splenic derived dendritic cells treated with the different compounds in a killing assay were we measured the MC38 RFP-OVA cancer cell viability upon 6 days of co-culture with OT-1 CD8a T cells primed by mouse splenic dendritic cells pre-treated with the two LRRK2 inhibitors (FIG. 5-A).

[2] = tested on: MART-1 T Cells; experiment: MART-1 T cell proliferation upon co-culture with pre-treated human cord blood derived dendritic cells; format: cell-based; settings: human MART-1 T cells primed by human cord blood derived dendritic cells, FIG. 4-F
Experimental: (§3) Cells were stained with anti-mouse H-2Kb/[…] antibody. […] F) FACS evaluation of human MART-1 T cell proliferation, upon co-culture with human cord blood derived dendritic cells pre-treated with the LRRK2 inhibitor LRRK2-IN-1. All the experiments were performed in triplicates.
as §2

[3] = tested on: DC2.4 SCR cells; experiment: antigen cross-presentation assay on DC2.4 cells (FACS, anti-mouse H-2Kb/[…] antibody); format: cell-based; settings: overnight administration
Experimental: as §3, §2

[4] = tested on: MC38 RFP-OVA cancer cells
Source text: as §1, §2

[5] = tested on: MC-38 tumor cells; experiment: in vivo tumor growth, immuno-deficient NSG mice engrafted with MC-38 tumor cells; parameters: species or system mouse
Experimental: (§4) The experiment was carried out with 6-8 weeks female NSG mice from Jackson Laboratory. All procedures described in this study have been reviewed and approved by the local ethic committee (CELEAG) and validated by the French Ministry of Research. Mice was hosted in TCS BSL-2 facility by groups of 5 individuals. Mice were allowed to acclimate to the environment for 5 days prior to the beginning of the experiment. During the efficacy study, mice were monitored daily for unexpected signs of distress. Body weight was monitored 3 times a week. Mice with a cumulative clinical score or with a body weight loss >25% were sacrificed.
Mice were injected subcutaneously with 0.5×10^6 MC-38 tumor cells in 50% Matrigel. Tumor cell engraftment was defined as day zero. At day 9, mice were randomized into 2 groups of 12 mice each, according to the tumor volume. Treatments were initiated at day 10, when the average tumor volume reached ˜150 mm3 as follows: • Group 1: vehicle, dose 200 μL twice per day per os • Group 2: GNE-7915: dose 300 mg/kg per os administration twice per day.
GNE-7915 (cat. num. HY-18163 from MedChemExpress). LRRK2 inhibitor was administered as free base suspensions in vehicle [1% (w/v) Avicel RC-591 and 0.2% (v/v) polysorbate 80 (Tween 80) in reverse osmosis water].
(§5) The aim of this study was to address the in vivo effect on tumor progression of LRRK2 kinase inhibition by using the LRRK2 inhibitor GNE-7915, in immuno-deficient mice engrafted with MC-38 tumor cells. NSG mice were injected subcutaneously with 0.5×10^6 MC-38 tumor cells. Tumor cell engraftment was defined as day zero. At day 9, mice were randomized into 2 groups.
Mice were injected subcutaneously with 0.5×10^6 MC-38 tumor cells in 50% Matrigel. Tumor cell engraftment was defined as day zero. At day 9, mice were randomized into 2 groups of 12 mice each, according to the tumor volume.
PFE-360 (cat. num. HY-120085 from MedChemExpress). […] LRRK2 inhibitors were administered as free base suspensions in vehicle [1% (w/v) Avicel RC-591 and 0.2% (v/v) polysorbate 80 (Tween 80) in reverse osmosis water]. […]

[6] = tested on: MC-38 tumor cells; experiment: in vivo tumor growth, immunocompetent C57BL/6 mice engrafted with MC-38 tumor cells; settings: anti-PD-L1 10 mg/kg i.v. once then 5 mg/kg i.p. twice per week; for MC-38 tumor growth in comparison with vehicle treated mice: PFE-360 7.5 mg/kg, Mli-2 10 mg/kg per os twice per day, day zero to day 28
Experimental: as §4, with “C57BL/6” for “NSG”, “Janvier Labs.” for “Jackson Laboratory.”
Mice were injected subcutaneously with 0.5×10^6 MC-38 tumor cells in 50% Matrigel. Tumor cell engraftment was defined as day zero. At day 8, mice were randomized into 4 groups of 10 mice each, according to the tumor volume. Treatments were initiated at day 9, when the average tumor volume reached ˜150 mm3 as follows: • Group 1: vehicle, dose 200 μL twice per day per os, twice per week intraperitoneal and intravenously once at day 8 • Group 2: 7915: dose 300 mg/kg per os administration twice per day. • Group 3: anti PD-L1 (clone 6E11, atezolizumab mouse surrogate): dose 10 mg/kg intravenous injection once at day 8 and dose 5 mg/kg intraperitoneal injection twice per week. • Group 4: 7915+anti-PD-L1 (clone 6E11, atezolizumab mouse surrogate): dose 300 mg/kg per os injection twice per day. Anti PD-L1: dose 10 mg/kg intravenous injection once at day 8 and dose 5 mg/kg intraperitoneal injection twice per week.
7915 (cat. num. HY-18163 from MedChemExpress). LRRK2 inhibitor was administered as free base suspensions in vehicle [1% (w/v) Avicel RC-591 and 0.2% (v/v) polysorbate 80 (Tween 80) in reverse osmosis water].
as §5, with “7915, alone or” for “GNE-7915,”, “combination with anti-PD-L1, in immunocompetent” for “immuno-deficient”, “C57BL/6” for “NSG”, “At day 9, mice were randomized into 2 groups.” left out

[7] = tested on: OT-1 CD8a T cells; experiment: OT-1 CD8a T cell proliferation upon co-culture with dendritic cells pre-treated with LRRK2 inhibitors; format: cell-based, mouse
Experimental: as §3, §2

[8] = tested on: 403 non-mutated kinases; experiment: KINOMEScan in vitro kinase selectivity assay; format: binding, human; settings: for number of different kinases whose binding is inhibited by 90% or more: at 0.1 μM, 403 non-mutated kinases; for number of unrelated kinases inhibited to >90%: at lowest concentration to inhibit >90 LRRK2 (0.1 uM)
Experimental: FIG. 10: In vitro kinase selectivity test. […] As a reference, the pan-kinase inhibitor sunitinib was tested.
As a reference, the pan-kinase inhibitor sunitinib was tested.
Kinases other than LRRK2 are herein referred to as unrelated kinases. A selectivity score S can be determined to quantify selectivity, as shown in Example 8. In one embodiment, the selectivity score S(65) of the inhibitor (e.g. the LRRK2 inhibitor) is defined as the ratio of number of kinases inhibited by 65% of binding to their ligand as compared to binding to their ligand without the inhibitor divided by the number of kinases tested. In one embodiment, the selectivity score S(90) of the inhibitor (e.g. the LRRK2 inhibitor) is defined as the ratio of number of kinases inhibited by 90% of binding to their ligand as compared to binding to their ligand without the inhibitor divided by the number of kinases tested. In one embodiment, the selectivity score S(99) of the inhibitor (e.g. the LRRK2 inhibitor) is defined as the ratio of number of kinases inhibited by 99% of binding to their ligand as compared to binding to their ligand without the inhibitor divided by the number of kinases tested. In one embodiment, the selectivity score S is determined for a specified concentration (e.g., 0.1 μM, 1 μM, or 10 μM) of the inhibitor (e.g. the LRRK2 inhibitor). Kinase—ligand binding (and inhibition thereof) can be measured using assays as known in the art and hereinbefore described and as described in Example 8.
(§6) The in vitro kinase selectivity for the tested compounds were determined by running a KINOMEScan® (DiscoverX, CA, USA). […] Selectivity scores S(65), S(90) and S (99) in FIG. 11 are calculated as the ratio of number of non-mutated kinases inhibited by 65%, 90 or 99% divided by the total number of non-mutated kinases tested.

[9] = target: LRRK2 (Homo sapiens, UniProt Q5S007); experiment: KINOMEScan in vitro kinase selectivity assay, LRRK2; format: binding
Experimental: as §6

[10] = PFE-360 7.5 mg/kg, Mli-2 10 mg/kg per os twice per day, day zero to day 24

Chain of LRRK2 (Q5S007 whole entry): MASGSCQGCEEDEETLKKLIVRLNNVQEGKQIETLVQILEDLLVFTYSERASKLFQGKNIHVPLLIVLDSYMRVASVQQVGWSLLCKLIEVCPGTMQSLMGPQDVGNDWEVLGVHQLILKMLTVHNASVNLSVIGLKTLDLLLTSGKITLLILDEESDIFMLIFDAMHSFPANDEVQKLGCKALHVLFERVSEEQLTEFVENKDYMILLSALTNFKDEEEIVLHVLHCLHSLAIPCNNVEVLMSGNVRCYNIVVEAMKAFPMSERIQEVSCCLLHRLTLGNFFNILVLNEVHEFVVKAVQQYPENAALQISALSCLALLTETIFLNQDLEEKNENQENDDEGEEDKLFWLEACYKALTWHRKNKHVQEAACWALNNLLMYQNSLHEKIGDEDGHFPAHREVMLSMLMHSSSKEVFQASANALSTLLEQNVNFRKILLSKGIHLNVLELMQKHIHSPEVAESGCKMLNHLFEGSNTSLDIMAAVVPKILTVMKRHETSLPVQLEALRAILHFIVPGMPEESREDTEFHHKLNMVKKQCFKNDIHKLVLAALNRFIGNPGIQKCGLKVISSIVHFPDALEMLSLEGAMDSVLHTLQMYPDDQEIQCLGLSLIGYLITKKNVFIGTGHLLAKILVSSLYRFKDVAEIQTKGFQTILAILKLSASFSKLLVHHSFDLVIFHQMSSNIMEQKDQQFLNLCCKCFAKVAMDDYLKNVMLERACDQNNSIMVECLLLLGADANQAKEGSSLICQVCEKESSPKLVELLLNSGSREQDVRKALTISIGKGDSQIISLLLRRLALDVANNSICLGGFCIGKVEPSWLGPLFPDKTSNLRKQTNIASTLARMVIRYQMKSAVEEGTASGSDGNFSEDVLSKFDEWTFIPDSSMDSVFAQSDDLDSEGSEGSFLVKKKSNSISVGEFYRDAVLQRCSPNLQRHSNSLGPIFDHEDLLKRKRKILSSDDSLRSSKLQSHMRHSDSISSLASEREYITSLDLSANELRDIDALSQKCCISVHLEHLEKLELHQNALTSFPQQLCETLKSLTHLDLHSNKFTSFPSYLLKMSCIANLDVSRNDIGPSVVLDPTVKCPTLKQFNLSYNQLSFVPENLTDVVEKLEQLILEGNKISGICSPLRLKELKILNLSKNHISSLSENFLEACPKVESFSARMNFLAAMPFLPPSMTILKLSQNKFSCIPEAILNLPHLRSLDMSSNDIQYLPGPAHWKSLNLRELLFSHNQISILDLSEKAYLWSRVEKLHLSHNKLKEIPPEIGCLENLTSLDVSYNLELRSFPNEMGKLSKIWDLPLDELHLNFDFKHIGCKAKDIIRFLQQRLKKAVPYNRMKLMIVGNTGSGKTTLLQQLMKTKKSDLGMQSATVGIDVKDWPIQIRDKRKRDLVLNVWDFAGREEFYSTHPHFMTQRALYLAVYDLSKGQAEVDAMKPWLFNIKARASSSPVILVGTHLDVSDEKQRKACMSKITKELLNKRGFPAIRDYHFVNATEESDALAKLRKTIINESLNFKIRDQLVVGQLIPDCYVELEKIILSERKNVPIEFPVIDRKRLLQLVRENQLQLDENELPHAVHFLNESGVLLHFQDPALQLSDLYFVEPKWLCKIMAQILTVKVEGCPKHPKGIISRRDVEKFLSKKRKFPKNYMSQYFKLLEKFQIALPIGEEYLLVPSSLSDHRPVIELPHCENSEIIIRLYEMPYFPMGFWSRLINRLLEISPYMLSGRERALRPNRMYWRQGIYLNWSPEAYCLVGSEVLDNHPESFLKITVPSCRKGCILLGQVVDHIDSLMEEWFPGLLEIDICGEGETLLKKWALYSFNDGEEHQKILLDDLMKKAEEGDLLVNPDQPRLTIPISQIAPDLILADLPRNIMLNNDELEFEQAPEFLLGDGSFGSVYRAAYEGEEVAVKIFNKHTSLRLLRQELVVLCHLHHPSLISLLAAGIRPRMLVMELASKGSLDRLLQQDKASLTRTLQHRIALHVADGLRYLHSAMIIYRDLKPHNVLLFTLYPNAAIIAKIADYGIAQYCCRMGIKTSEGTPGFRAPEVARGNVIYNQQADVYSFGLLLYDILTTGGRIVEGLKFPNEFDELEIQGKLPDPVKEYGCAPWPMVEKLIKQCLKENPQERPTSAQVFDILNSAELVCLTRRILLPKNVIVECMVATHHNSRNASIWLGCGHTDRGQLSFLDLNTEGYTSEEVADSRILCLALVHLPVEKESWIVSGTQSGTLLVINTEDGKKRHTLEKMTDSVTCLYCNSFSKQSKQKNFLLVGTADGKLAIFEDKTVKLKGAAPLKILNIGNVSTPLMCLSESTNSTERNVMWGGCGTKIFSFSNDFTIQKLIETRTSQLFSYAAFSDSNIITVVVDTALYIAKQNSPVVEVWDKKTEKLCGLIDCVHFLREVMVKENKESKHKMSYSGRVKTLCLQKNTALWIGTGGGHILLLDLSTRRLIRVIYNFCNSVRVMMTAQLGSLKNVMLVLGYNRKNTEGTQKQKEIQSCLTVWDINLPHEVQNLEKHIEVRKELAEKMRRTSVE

Compound | T cell mediated cytotoxicity (MC38 RFP-OVA cancer cell viability) [4] | number of different kinases whose binding is inhibited by 90% or more [8] | number of unrelated kinases inhibited to >90% [8] | MC-38 tumor growth in comparison with vehicle treated mice [5, 10] | MC-38 tumor growth in comparison with vehicle treated mice [6] | inhibition at 0.1 µM [9] [%] | further results
COc1cc(C(=O)N2CCC(N3CCN(C)CC3)CC2)ccc1Nc1ncc2c(n1)N(C)c1ccccc1C(=O)N2C [LRRK2-IN-1, 2-[2-methoxy-4-[4-(4-methylpiperazin-1-yl)piperidine-1-carbonyl]anilino]-5,11-dimethyl-pyrimido[4,5-b][1,4]benzodiazepin-6-one] | – | – | – | – | – | – | MV3 cancer cell viability [1]: dose dependent reduction of MV3 cancer cell viability; cross-presentation mediated T cell proliferation [2]: already at lowest concentration a stable increase; also recorded: increased the T cells proliferation; concentration showing an effect on antigen cross-presentation [3]: 1 µM
CCNc1nc(Nc2cc(F)c(C(=O)N3CCOCC3)cc2OC)ncc1C(F)(F)F [compound 7915, [4-[[4-(ethylamino)-5-(trifluoromethyl)pyrimidin-2-yl]amino]-2-fluoro-5-methoxy-phenyl]-morpholino-methanone] | increased T cell mediated cytotoxicity | – | – | – | – | – | MC-38 tumor growth in comparison with vehicle treated mice ([5]; GNE-7915 300 mg/kg per os twice per day, day zero to day 21, 300 mg/kg): not modifying tumor growth; also recorded: not impacting MC-38 tumor growth; tumor growth inhibition ([6]; MC-38, vs vehicle, 7915 300 mg/kg per os twice per day, day zero to day 15): 82%; cross-presentation mediated T cell proliferation ([7]; murine OT1 CD8a T cells, FIG. 4-H): already at lowest concentration a stable increase
C[C@@H]1CN(c2cc(-c3n[nH]c4ccc(OC5(C)CC5)cc34)ncn2)C[C@H](C)O1 [MLi-2, cis-2,6-dimethyl-4-[6-[5-(1-methylcyclopropoxy)-1H-indazol-3-yl]pyrimidin-4-yl]morpholine] | increased T cell mediated cytotoxicity | three | 3 | not modifying tumor growth; also recorded: not impacting MC-38 tumor growth | inducing tumor growth inhibition; also recorded: significantly decrease MC-38 tumor growth | – | –
CCN(CC)CCNC(=O)c1c(C)[nH]c(/C=C2\C(=O)Nc3ccc(F)cc32)c1C [sunitinib] | – | – | – | – | – | < 50 | –
CNc1nc(Nc2cnn(C3CCN(C4COC4)CC3F)c2Cl)ncc1C(F)(F)F (stereo not drawn) [compound 9605, N2-[5-chloro-1-[3-fluoro-1-(oxetan-3-yl)-4-piperidyl]pyrazol-4-yl]-N4-methyl-5-(trifluoromethyl)pyrimidine-2,4-diamine] | increased T cell mediated cytotoxicity | – | – | – | – | – | concentration at which increased T cell proliferation is shown ([7]; OT-1 CD8a T cells co-cultured with pre-treated mouse splenic dendritic cells): ≥ 100 nM
Cn1cc(-c2c[nH]c3ncnc(N4CCOCC4)c23)cc1C#N [PFE-360, 1-methyl-4-(4-morpholino-7H-pyrrolo[2,3-d]pyrimidin-5-yl)pyrrole-2-carbonitrile] | – | 9 | 9 | not modifying tumor growth; also recorded: not impacting MC-38 tumor growth | inducing tumor growth inhibition; also recorded: significantly decrease MC-38 tumor growth | 100 | fold more selective than sunitinib ([8]; at all concentration on average): ~2 fold
